In US11168102B1, “Bicyclic heteroaryl compounds and uses thereof” (Revolution Medicines, Inc., priority 2019, dated 2021):

system: cellular pERK in PC-9 cells (EGFR Ex19Del); test: Potency assay: pERK (AlphaLISA SureFire Ultra p-ERK1/2) in PC-9 cells; type: cell-based; settings: Homo sapiens, PC-9, 1 h, PC-9 cells (EGFR Ex19Del), 1 hour incubation, AlphaLISA SureFire Ultra p-ERK1/2; read-out: SOS1 pERK IC50

Row | SMILES | IC50 [nM]
1 | CC(=O)N1CCC(c2cc3c(N[C@H](C)c4cccc(C(F)(F)C5CN(C6CC6)CCO5)c4F)ncnc3n(C)c2=O)CC1 (stereo partly drawn) [Example 55, 6-(1-acetyl-4-piperidyl)-4-[[(1R)-1-[3-[(4-cyclopropylmorpholin-2-yl)-difluoro-methyl]-2-fluoro-phenyl]ethyl]amino]-8-methyl-pyrido[2,3-d]pyrimidin-7-one] | 109
2 | CC(=O)N1CCC(c2cc3c(N[C@H](C)c4cc(C(F)(F)F)cc(N)n4)ncnc3n(C)c2=O)CC1 [Example 44, 6-(1-acetyl-4-piperidyl)-4-[1-[6-amino-4-(trifluoromethyl)-2-pyridyl]ethylamino]-8-methyl-pyrido[2,3-d]pyrimidin-7-one] | 179
3 | C[C@@H](Nc1ncnc2c1cc(C1(F)CCS(=O)(=NC3CC3)CC1)c(=O)n2C)c1cccc(C(F)F)c1F (stereo partly drawn) [Example 56, 6-((1R,4r)-1-(cyclopropylimino)-4-fluoro-1-oxidohexahydro-1λ^6-thiopyran-4-yl)-4-(((R)-1-(3-(difluoromethyl)-2-fluorophenyl)ethyl)amino)-8-methylpyrido[2,3-d]pyrimidin-7(8H)-one] | 57.2
4 | C[C@@H](Nc1ncnc2c1cc(C1(F)CN(S(C)(=O)=O)C1)c(=O)n2C)c1cccc(C(F)F)c1F [Example 29-6] | 470
5 | COC1(c2cc3c(N[C@H](C)c4ccnc(C(F)F)c4F)ncnc3n(C)c2=O)CCN(C(C)=O)CC1 [Example 71, 6-(1-acetyl-4-methoxy-4-piperidyl)-4-[[(1R)-1-[2-(difluoromethyl)-3-fluoro-4-pyridyl]ethyl]amino]-8-methyl-pyrido-[2,3-d]pyrimidin-7-one] | 528
6 | C[C@@H](Nc1ncnc2c1cc(C1(F)CCS(=O)(=O)C1)c(=O)n2C)c1cccc(C(F)F)c1F (stereo partly shown) [Example 29-11] | 44.3
7 | C[C@@H](Nc1ncnc2c1cc(C1(O)CC3CCC(C1)S3(=O)=O)c(=O)n2C)c1cccc(C(F)F)c1F (stereo partly shown) [Example 28-5] | 157
8 | Cc1nc(N[C@H](C)c2cccc(C(F)F)c2F)c2cc(CN3CCOCC3)c(=O)n(C)c2n1 [Example 27, 4-{[(1R)-1-[3-(difluoromethyl)-2-fluorophenyl]ethyl]amino}-2,8-dimethyl-6-[(morpholin-4-yl)meth-yl]-7H,8H-pyrido[2,3-d]pyrimidin-7-one] | 852
9 | C[C@@H](Nc1ncnc2c1cc(C1CCNCC1)c(=O)n2C)c1cccc(C(F)F)c1F [Example 1-28] | 125
10 | C[C@@H](Nc1ncnc2c1cc(C1(O)CS(=O)(=O)C1)c(=O)n2C)c1cccc(C(F)F)c1F [Example 28-7] | 322
11 | C[C@@H](Nc1ncnc2c1cc(C(=O)N1CC(N3CC(C)(O)C3)C1)c(=O)n2C)c1cccc(C(F)F)c1F [Example 26-45] | 521
12 | C[C@@H](Nc1ncnc2c1cc(C1=CCS(=O)(=O)CC1)c(=O)n2C)c1cccc(C(F)F)c1CC#N [Example 63, 2-[2-(difluoromethyl)-6-[(1R)-1-[[6-(1,1-dioxo-3,6-dihydro-2H-thiopyran-4-yl)-8-methyl-7-oxo-pyrido[2,3-d]pyrimidin-4-yl]amino]ethyl]phenyl]acetonitrile] | > 10000
13 | C[C@@H](Nc1ncnc2c1cc(C1=CCS(=O)(=O)CC1)c(=O)n2C)c1cccc(C(F)(F)CN)c1F [Example 42, 4-(4-{[(1R)-1-[3-(2-amino-1,1-difluoroethyl)-2-fluorophenyl]ethyl]amino}-8-methyl-7-oxo-7H,8H-pyrido[2,3-d]pyrimidin-6-yl)-3,6-dihydro-2H-1λ^6-thiopyran-1,1-dione] | 242
14 | CC(=O)N1CC(F)(c2cc3c(N[C@H](C)c4cccc(C(F)F)c4F)ncnc3n(C)c2=O)C1 [Example 29-2] | 91.5
15 | C[C@@H](Nc1ncnc2c1cc(-c1ccncc1)c(=O)n2C)c1cccc(C(F)F)c1F [Example 21-14] | 119
16 | C[C@@H](Nc1ncnc2c1cc(C(=O)N1CC3(CCCO3)C1)c(=O)n2C)c1cccc(C(F)F)c1F [Example 26-13] | 1130
17 | C[C@@H](Nc1ncnc2c1cc(-c1cccnc1)c(=O)n2C)c1cccc(C(F)F)c1F [Example 21-15] | 212
18 | CC(=O)NC1(c2cc3c(N[C@H](C)c4cccc(C(F)F)c4F)ncnc3n(C)c2=O)CCS(=O)(=O)CC1 [Example 31-3] | 777
19 | C[C@@H](Nc1ncnc2c1cc(C(=O)N1CC3(CCOCC3)C1)c(=O)n2C)c1cccc(C(F)F)c1F [Example 26-33] | 152

Other lines, results leading:

Row | IC50 [nM] | SMILES
20 | 249 | COC1(c2cc3c(N[C@H](C)c4cccc(C(F)F)c4F)ncnc3n(C)c2=O)CCP(C)(=O)CC1 (stereo partly shown) [Example 32-45]
21 | 5.79 | CO[C@]1(c2cc3c(N[C@H](C)c4cccc(C(F)F)c4F)ncnc3n(C)c2=O)CCN(C(C)=O)[C@H](C)C1 [Example 32-51]
22 | 199 | CO[C@@]1(c2cc3c(N[C@H](C)c4cccc(C(F)F)c4F)ncnc3n(C)c2=O)CCN(C(C)=O)C(C)(C)C1 [Example 32-53]
23 | 293 | C[C@@H](Nc1ncnc2c1cc(C1CCS(=O)(=NC(N)=O)CC1)c(=O)n2C)c1cccc(C(F)F)c1F (stereo partly shown) [Example 33-24]
24 | 436 | COC1(c2cc3c(N[C@H](C)c4cccc(C(F)F)c4F)ncnc3n(C)c2=O)CN(S(C)(=O)=O)C1 [Example 32-10]
25 | 16.3 | COC1(c2cc3c(N[C@H](C)c4cccc(C(F)F)c4F)ncnc3n(C)c2=O)CCN(C(C)=O)C1 (stereo partly shown) [Example 32-9]
26 | 32.1 | CC(=O)N1CCC(OC2CC2)(c2cc3c(N[C@H](C)c4cccc(C(F)F)c4F)ncnc3n(C)c2=O)CC1 [Example 32-44]
27 | 49.3 | COC1(c2cc3c(N[C@H](C)c4cccc(C(F)F)c4F)ncnc3n(C)c2=O)CC2(CN(C(C)=O)C2)C1 [Example 32-15]
28 | 13.3 | COC1(c2cc3c(N[C@H](C)c4cccc(C(F)F)c4F)nc(C)nc3n(C)c2=O)CCN(C(C)=O)C1 (stereo partly shown) [Example 32-58]
29 | 21.1 | COC1(c2cc3c(N[C@H](C)c4cccc(C(F)F)c4F)ncnc3n(C)c2=O)CCN(C=O)CC1 [Example 32-60]
30 | 11.3 | CO[C@]1(c2cc3c(N[C@H](C)c4cccc(C(F)F)c4F)ncnc3n(C)c2=O)CCN(C(C)=O)C1 [Example 32-19]
31 | 382 | COC1(c2cc3c(N[C@H](C)c4cccc(C(F)F)c4F)ncnc3n(C)c2=O)CC(N(C)C(C)=O)C1 (stereo in doubt) [Example 32-40]
32 | 236 | CO[C@@]1(c2cc3c(N[C@H](C)c4cccc(C(F)F)c4F)ncnc3n(C)c2=O)CCN(C(C)=O)[C@@H](C)C1 [Example 32-30]
33 | 182 | C[C@@H](Nc1ncnc2c1cc(C1CCS(=O)(=O)CC1)c(=O)n2C)c1ccc(-c2ccccc2CCN)s1 [Example 33-19]
34 | 521 | C[C@@H](Nc1ncnc2c1cc(C1CN(S(C)(=O)=O)C1)c(=O)n2C)c1cccc(C(F)F)c1F [Example 33-7]
35 | 113 | CC(=O)N1CC[C@H](c2cc3c(N[C@H](C)c4cccc(C(F)F)c4F)ncnc3n(C)c2=O)C1 [Example 33-15]
36 | 355 | COC1(c2cc3c(N[C@H](C)c4cccc(C(F)F)c4F)ncnc3n(C)c2=O)CCN(C(C)=O)C2(CC2)C1 (stereo partly shown) [Example 32-42]
37 | 115 | COC(=O)N1CCC(OC)(c2cc3c(N[C@H](C)c4cccc(C(F)F)c4F)ncnc3n(C)c2=O)CC1 [Example 32-61]
38 | 50 | C[C@@H](Nc1ncnc2c1cc(C1(F)CCS(=O)(=NC3CC3)CC1)c(=O)n2C)c1cccc2c1OCC2(F)F (stereo partly shown) [Example 56-4]
39 | 153 | CO[C@@]1(c2cc3c(N[C@H](C)c4cccc(C(F)F)c4F)ncnc3n(C)c2=O)C[C@H](C)N(C(C)=O)C1 [Example 32-50]

same assay, conditions: Homo sapiens, PC-9, 1 h, read-out: SOS1 pERK IC50

Row | SMILES | IC50 [nM]
40 | C[C@@H](Nc1ncnc2c1cc(C1(N)CCC3(CC1)CS(=O)(=O)C3)c(=O)n2C)c1cccc(C(F)F)c1F [Example 31-5] | 26.7
41 | Cc1nc(N[C@H](C)c2cccc(C(F)F)c2F)c2cc(C3(O)CCN(C)CC3)c(=O)n(C)c2n1 [Example 28-2] | 572

same assay, conditions: PC-9 cells (EGFR Ex19Del), 1 hour incubation, AlphaLISA SureFire Ultra p-ERK1/2; read-out: SOS1 pERK IC50

Row | SMILES | IC50 [nM]
42 | C[C@@H](Nc1ncnc2c1cc(C1CCS(=O)(=O)C1)c(=O)n2C)c1cccc(C(F)F)c1F (stereo partly shown) [Example 33-20] | 52.7
43 | C[C@@H](Nc1ncnc2c1cc(C1=CCS(=O)(=NC3COC3)CC1)c(=O)n2C)c1cccc(C(F)F)c1F (stereo partly drawn) [Example 66, 4-(((R)-1-(3-(difluoromethyl)-2-fluorophenyl)ethyl)amino)-8-methyl-6-((R)-1-(oxetan-3-ylimino)-1-oxido-1,2,3,6-tetrahydro-1λ^6-thiopyran-4-yl)pyrido[2,3-d]pyrimidin-7(8H)-one] | 29.1
44 | C[C@@H](Nc1ncnc2c1cc(C1(F)CCP(C)(=O)CC1)c(=O)n2C)c1cccc(C(F)F)c1F (stereo partly shown) [Example 29-10] | 140

Now from value to compound:

Row | IC50 [nM] | SMILES
45 | 207 | C[C@@H](Nc1ncnc2c1cc(C1(C#N)CCS(=O)(=O)C1)c(=O)n2C)c1cccc(C(F)F)c1F (stereo partly shown) [Example 36-14]
46 | 100 | COC1(c2cc3c(C[C@H](C)c4cccc(C(F)F)c4F)ncnc3n(C)c2=O)CC2(C1)CS(=O)(=NC1CC1)C2 (stereo partly shown) [Example 68-3]
47 | 50.3 | COC1(c2cc3c(N[C@H](C)c4cccc(C(F)F)c4F)ncnc3n(C)c2=O)CCS(=O)(=O)C(C)C1 (stereo partly shown) [Example 32-65]
48 | 294 | C[C@@H](Nc1ncnc2c1cc(C1(F)CCC3(CC1)CS(=O)(=NC1CC1)C3)c(=O)n2C)c1cccc(C(F)F)c1F (single isomer, unassigned) [Example 56-2]
49 | 301 | CC(=O)N1CCC2(c3cc4c(N[C@H](C)c5cccc(C(F)F)c5F)ncnc4n(C)c3=O)CC2C1 (single isomer, unassigned) [Example 54-4]
50 | 26.3 | C[C@@H](Nc1ncnc2c1cc(C1CCS(=O)(=NC3CC3)CC1)c(=O)n2C)c1cccc(C(F)F)c1F (single isomer, unassigned) [Example 64-1]
51 | 148 | COC1(c2cc3c(N[C@H](C)c4cccc(C(F)F)c4F)ncnc3n(C)c2=O)CCP(C)(=O)CC1 (stereo partly shown) [Example 32-46]
52 | 40.7 | CC1CC(c2cc3c(N[C@H](C)c4cccc(C(F)F)c4F)ncnc3n(C)c2=O)CCS1(=O)=O (stereo partly shown) [Example 33-12]
